Test results reported in patent US5858738A, “Ermophilane sesquiterpenoids as HIV intergrase inhibitors” (Merck & Co., Inc., priority 1997, dated 1999).
pIC50: −log10 of the molar value.

Key:
[1] = target: T1, HIV integrase (Human immunodeficiency virus type 1 group M subtype B, UniProt P04585); experiment: Strand Transfer Assay for HIV Integrase (ligation of processed donor (HIV) DNA to nicked host DNA); assay type: biochemical; settings: inhibition of strand transfer; inhibitor 0.1 to 100 μM
T1 construct: strand transfer by HIV integrase
Experimental: Strand Transfer Assay for HIV Integrase
A microtiter assay for ligation of processed donor (HIV) DNA to unspecific, nicked host DNA was conducted according to Hazuda, D. J. et al., Nucl. Acids, Res. 22, 1121 (1994), herein incorporated by reference for these purposes. To assay inhibition of such strand transfer by HIV integrase, the reaction was conducted with inhibition having various concentrations in the range of 0.1 to 100 μM.

[2] = target: T2, HIV-1 integrase (Human immunodeficiency virus type 1 group M subtype B, UniProt P04585); experiment: HIV Integrase Substrate Cleavage and Integration Assay (trimming of the 3' end of HIV long terminal repeat terminus); assay type: biochemical; settings: inhibition of HIV integrase substrate cleavage; inhibitor 0.1 to 100 μM
T2 construct: HIV-1 integrase
Experimental: HIV Integrase Substrate Cleavage and Integration Assay
An assay for trimming of the 3' end of HIV long terminal repeat terminus by HIV-1 integrase was conducted according to LaFemina, R. L. et al., J. Virol 10, 5624 (1991), herein incorporated by reference for these purposes. To assay inhibition of HIV integrase substrate cleavage, the reaction was conducted with inhibitor having various concentrations in the range of 0.1 to 100 μM.

[3] = target: T3, HIV Integrase/donor (HIV) DNA complexes (Human immunodeficiency virus type 1 group M subtype B, UniProt P04585); experiment: Assay for Assembly of HIV Integrase/donor (HIV) DNA Complexes; settings: inhibition of assembly or binding to immobilized donor (HIV) DNA; inhibitor 0.1 to 100 μM
T3 construct: strand transfer by HIV integrase
Experimental: Assay for Assembly of HIV Integrase/donor (HIV) DNA Complexes
An assay measuring the binding of HIV Integrase to immobilized donor (HIV) DNA was conducted according to Wolfe, A. L. et al., J. Virol. 70, 1424 (1996), herein incorporated by reference for these purposes. To assay inhibition of such assembly or binding, the reaction was conducted with inhibitor having various concentrations in the range of 0.1 to 100 μM. Results follow.

With `C=C(C=O)C1CC2(C)C(=CC1=O)C(OC(=O)C(C)=CC(C)CCCC)CCC2C(=O)O` (stereo not drawn) [Compound A] the pIC50 [1] was 5.00 to 5.30, the pIC50 [2] was 5.00 to 5.30 and the pIC50 [3] was 5.00.
